# Laboratory results as given in PMC12040169 (PLOS Biology, 2025).
# Test: in vitro
# Conditions: human, hela cells, % viability
row,Compound,"viability at 28.5 h, 10 µM"
1,CN1CCN(CC(=O)N2N=C(c3c(-c4ccccc4)c4cc(Cl)ccc4[nH]c3=O)CC2c2ccccc2)CC1 (centres unmarked) [CBK267545],88.9%
2,C[C@H]1[C@@H]2[C@@H](O)C([C@H](C)C(=O)N3CCCC3)CC[C@@]2(C)CC[C@@H]1NC(=O)c1ccncc1 (some centres unmarked) [CBK289450],94.8%
3,Cc1cc(NC(=O)c2cc(Br)cnc2NCc2cccnc2)n(C)n1 [CBK076358],90.7%
4,CCc1nn(CCC(C)O)c(=O)c2cc3sc(C)cc3n12 (centres unmarked) [CBK282869],89.1%
5,CSc1nsc(NC(=O)Nc2ccccc2)n1 [CBK027286],97.9%
6,O=C(O)c1cccc(NS(=O)(=O)c2cc(C(F)(F)F)cc(C(F)(F)F)c2)c1 [CBK155725],102%
7,CC1(C)CC(NC(=O)CN2CCCCC2)CC(C)(C)N1 [CBK261956],92.4%
8,Fc1ccc(C2(CCCN3CCN(c4ccncc4)CC3)OCCO2)cc1 [CBK038887],111%
9,Cc1cc(C)n(CCN2CCC(N(C)Cc3nnc(C)n3C)C2)n1 (centres unmarked) [CBK304449],94.3%
10,O=C(N[C@H]1CCCC[C@H]1N1CCCC1)N[C@H]1CCCC[C@H]1N1CCCC1 [CBK003419],115%
11,CCCc1c(C(=O)NCCCN(C)C)cnn1-c1cc(Cl)cc(Cl)c1 [CBK107376],89.3%
12,O=C(O)COCC(=O)N1C[C@@H]2OCC(=O)N(Cc3ccccc3)[C@@H]2C1 [CBK289652],101%
13,COc1ccc(-c2nc(C#N)c(NCCN3CCOCC3)o2)cc1 [CBK265769],108%
14,O=S(=O)(NCCN1CCOCC1)c1ccc(Cl)c(Cl)c1Cl [CBK264973],109%
15,O=C(O)CC1Sc2ccccc2NC1=O (centres unmarked) [CBK261308],101%
16,c1ccc2nc(N3CCCC3)c(OC3CCNC3)nc2c1 (centres unmarked) [CBK115288],99.9%
17,COc1cc(/C=N/Nc2ccc(C(=O)O)cc2)cc(Br)c1O [CBK263318],95.8%
18,O=S(=O)(Nc1nnn[nH]1)c1ccc(-c2ccon2)s1 [CBK062391],97.7%
19,O=C(NC1CCc2ccccc21)c1cnc(-c2ccc(Cl)cc2)c(-c2ccc(O)cc2)c1 (centres unmarked) [CBK036629],91%
20,COCCNc1cc(-c2cccc(F)c2C(N)=O)c2cc[nH]c2n1 [CBK307682],94.2%
21,Cc1cccc(CC(=O)N2CCCC2c2n[nH]cc2-c2ccncc2)c1 (centres unmarked) [CBK283447],90.7%
22,COc1ccccc1-c1ccc(CC2(C(=O)NCc3cccs3)CCOCC2)cc1 [CBK286517],93%

row,Compound,"viability at 28.5 h, 10 µM"
1,Brc1ccsc1-c1csc(-c2ccccc2)n1 [CBK019859],102%
2,COCC1CCCN(Cc2ccc(Br)cc2)C1 (centres unmarked) [CBK304624],108%
3,O=c1ccc2c(-c3ccsc3)ccnc2[nH]1 [CBK073724],91.5%
4,COc1ccc(Cl)cc1NC(=O)Nc1ccc(C(=O)N2CCOCC2)cc1 [CBK266958],87.1%
5,CCCC/C=C/c1cc(NCCC)n2nccc2n1 [CBK037127],99.1%
6,O=c1cc(NCCCN2CCN(Cc3ccccc3)CC2)c2ccccc2o1 [CBK011079],81%
7,Cc1nn(C(C)CC(=O)Nc2ccnn2C(C)C)c(C)c1Cl (centres unmarked) [CBK281537],95.8%
8,CCN(CC)C(=O)Cn1nc(C)n2c(cc3oc(C)cc32)c1=O [CBK283609],93.7%
9,Cc1c(Cl)cccc1NC(=O)c1cnc2scc(C)n2c1=O [CBK287463],117%
10,CN1C(=O)COc2ccccc2C/C=C/C[C@H]2CNCC[C@H]21 [CBK292076],107%
11,O=C(COc1ccc2ccccc2c1)N1CCN(S(=O)(=O)c2ccc([N+](=O)[O-])cc2)CC1 [CBK264277],98%
12,CC(C)C(=O)Nc1cc2ccccc2c(-c2cc(F)cc(F)c2)n1 [CBK085775],95.4%
13,Cc1ccnc2c1C(=O)C1(CC2)CCN(S(=O)(=O)c2c(C)noc2C)CC1 [CBK059557T],80.4%
14,CC(Sc1nc(-c2ccccc2F)n[nH]1)C(=O)N1CCNC1=O (centres unmarked) [CBK295594],106%
15,CCN(CC)CCC(=O)N1CC2(CCN(C(=O)OCc3ccccc3)CC2)c2ccccc21 [CBK122479],106%
16,COc1ccccc1NC(=N)Nc1nc(CSc2nc3ccccc3s2)cc(=O)[nH]1 [CBK269046],86%
17,Cc1cnn(C2CCCN(C(=O)Cc3cccs3)C2)c1 (centres unmarked) [CBK304832],102%
18,Cc1nn(C)cc1S(=O)(=O)Nc1cccc(-c2ccc(F)cc2)c1 [CBK282788],103%
19,COc1ccc(Cn2c(C)nc3ccccc32)cc1 [CBK201156],116%
20,CNc1cc(N2CCN(S(=O)(=O)N(C)C)CC2)ccc1[N+](=O)[O-] [CBK269311],89.8%
21,C=CCNC(=O)C1CC2CCC1(C)C[C@@]21NC(=O)c2ccccc2N1 (some centres unmarked) [CBK284442],86.6%
22,Cc1cccnc1NC(=O)C(C)n1cc([N+](=O)[O-])cn1 (centres unmarked) [CBK268918],104%
